# Experiments:
# ZAT10 = ZAT10 gene expression by real-time PCR, Example 11; assay type: in vivo; settings: Arabidopsis thaliana; 0.4 mM, 22° C. for 2 hours; read-out: ZAT10 expression level, increase vs control
# Experimental: (§1) The materials as used in Example 1 were used.
# (§2) The medium as used in Example 1 was used.
# (§3) To the Arabidopsis thaliana plants grown for 7 days in the same manner as in Example 1, 0.4 mM N-acetylglutamic acid or an equivalent amount of sterile water was added, and the plants were incubated at 22° C. for 2 hours. After incubation for 2 hours, the samples were frozen with liquid nitrogen, and RNA was extracted using the RNeasy Plant Mini Kit […].
# (§4) cDNA that would be necessary as a real-time PCR template was synthesized from the RNA obtained. 1000 ng total RNA was used for each sample, and cDNA was synthesized using the Verso cDNA Synthesis Kit (Thermo Fischer Scientific). The synthesized cDNA was diluted to 5-fold with sterile distilled water and subjected to real-time PCR. For real-time PCR, a reaction solution containing ZAT10 (AGI code: AT1G27730) and ZAT12 (AGI code: AT5G59820) as the target genes, PP2AA3 (AGI code: AT1G13320) as the reference gene, and TB Green Ex Taq II (TakaRa) was prepared. PCR was performed with the use of the LightCycler® 480 System (Roche) with the number of amplification cycles of 50. The primers shown below were used.
# (§5) Thereafter, the relative expression levels of the target genes upon N-acetylglutamic acid treatment were calculated by the ΔΔCt method using the Cp values obtained by real-time PCR.
# ZAT12 = ZAT12 gene expression by real-time PCR, Example 11; assay type: in vivo; settings: Arabidopsis thaliana; 0.4 mM, 22° C. for 2 hours; read-out: ZAT12 expression level, increase vs control
# Experimental: as §1, §2, §3, §4, §5
# OsZAT12 = OsZAT12 gene expression by real-time PCR, Example 12; assay type: in vivo, rice; settings: Oryza sativa; 0.5 mM in medium, 30° C. for 2 hours, aboveground part; read-out: OsZAT12 expression level, increase vs control
# Text: In order to design primers for the target genes necessary for gene expression analysis by real-time PCR, homologs of Arabidopsis thaliana high-temperature-responsive genes in rice were searched for. The amino acid sequence of Arabidopsis thaliana ZAT12 (AGI code: AT5G59820) was obtained from TAIR (https://www.arabidopsis.org/), and the nucleotide sequence of the homolog was obtained using RAP-DB (https://rapdb.dna.affrc.go.jp/). As a reference gene, the nucleotide sequence of the homolog of Arabidopsis thaliana ACTIN2 (AGI code: AT3G18780) was also obtained. Homolog genes in rice were designated as OsZAT12 and OsACT1, respectively.
# The materials as employed in Example 3 were used.
# The method as employed in Example 3 was employed.
# The rice samples subjected to germination for 3 days were inoculated into a liquid medium consisting of a ½ Murashige and Skoog Plant Salt Mixture. Specifically, a liquid medium was dispensed at 3 ml/well to a 12-well microplate (IWAKI), and 3 samples were transferred to each well. N-acetylglutamic acid was applied to each well to the final concentration of 0.5 mM in the medium, incubation was performed at 30° C. for 2 hours, and RNA was extracted from the aboveground part using the RNeasy Plant Mini Kit. […]
# Thereafter, the relative expression level of the target gene upon N-acetylglutamic acid treatment was calculated by the ΔΔCt method.
# Arabidopsis thaliana = assay: Oxidation stress resistance against methyl viologen (leaf chlorosis, chlorophyll content), Example 8; assay type: in vivo, Arabidopsis thaliana (Col-0); settings: with 5 μM methyl viologen, 2 days
# Experimental: A wild-type Arabidopsis thaliana strain (accession: Col-0) was used as an experimental material. Seeds were purchased from Inplanta Innovations Inc.
# A Murashige and Skoog Plant Salt Mixture 2.2 g (Nacalai tesque) and sucrose 10 g (FUJIFILM Wako) were dissolved in 1 l of pure water, a pH was adjusted to 5.8, and the resultant was sterilized in an autoclave (121° C., 20 minutes).
# Arabidopsis thaliana seeds were sterilized by incubation with the use of a Kitchen Haiter® (Kao Corporation) diluted to 2-fold with pure water for 3 minutes. After the seeds were washed with sterile water 3 times, the seeds soaked in sterile water were incubated at 4° C. in the dark for 1 day in order to germinate the seeds at the same time. […]
# Leaf chlorosis is observed in plants upon oxidation stress exposure. Thus, an extent of chlorosis was evaluated by measuring the content of the green pigment chlorophyll in leaves. The chlorophyll content was quantified in accordance with the method of Yamaguchi et al. (Nature Commun., Jun. 9, 2021; 12 [1]: 3480). […] The absorbance of the extract was measured at 647 nm and 664 nm, respectively, to calculate the chlorophyll content. The chlorophyll content was calculated in accordance with the formula: 19.43×A647+8.05×A664. The calculated value was divided by the plant weight per well, so as to eliminate the influence of individual sizes.
compound,measurement,setting,value
CC(=O)N[C@@H](CCC(=O)O)C(=O)O [N-acetylglutamic acid],fold induction at 400 µM,ZAT10,28
same,fold induction at 400 µM,ZAT12,37
same,fold induction at 500 µM,OsZAT12,2.9
same,chlorophyll content of the MV-treated groups,"Arabidopsis thaliana; 0, 0.01, 0.1, and 0.4 mM, fresh weight basis",increased as the N-acetylglutamic acid concentration was increased
same,leaf chlorosis in MV-treated group,Arabidopsis thaliana; 0.4 mM,substantially no leaf chlorosis was observed
